Read-outs that look alike come from different tables or passages of the source. Marks after values point to notes of the source that are not given here.
Columns and labels:
Type in all cases: in vivo, human
[1] = Adverse events after single oral doses, T2DM subjects (Part B); conditions: for At least one adverse event: n = 6
Description: This double-blind, randomized, placebo-controlled, single escalating-dose crossover study was conducted in two parts: Part A consisted of a randomized, dose-escalation in healthy subjects; Part B was of similar design, but conducted in subjects with T2DM and included an evaluation of pharmacodynamics using a 50 g oral glucose tolerance test (OGTT).
Six subjects with T2DM received two doses of remogliflozin etabonate and a placebo dose, in a randomized, dose escalating, crossover design, along with an oral glucose load on three study sessions separated by 7–14 days. Full PK and safety profiles were measured on Day 1 of each dosing period. The doses selected for this portion of the study, 50 mg and 500 mg, were based on data obtained in Part A. In each dosing period, subjects were assigned to active vs placebo in a 2:1 ratio.
(§1) All subjects were admitted to the unit two nights prior to receiving study drug to establish baseline safety parameters and fluid intake levels over a 36 h period. Subjects remained in the unit for at least 24 h after doses were administered for monitoring of clinical laboratory parameters exploratory biomarkers, vital signs, ECGs and adverse events. While confined to the clinical research unit, all subjects received meals standardized with respect to calories, fat, protein, carbohydrate, and sodium content; however, detailed dietary information was not captured in this study. In Part A, subjects were dosed following an overnight fast; lunch and dinner were provided at 4 and 10 h after dosing, respectively. Fifteen minutes after dosing in each treatment period in Part B, a fasting OGTT was performed using 50 g glucose (administered as 50 g Glucola™). A 50 g glucose load was chosen since the OGTT was being performed in subjects already known to have diabetes. The glucose drink was consumed by subjects within approximately 5 minutes. Blood samples for the measurement of glucose, insulin, and intact glucagon-like peptide 1 (GLP-1) were collected for 24 hours following dose administration. Provided that there were no safety or tolerability concerns, subjects were released from the clinic on day 2 of each treatment period until their return for the next treatment or follow-up period. Each subject was involved in the study for approximately 8 weeks (from screening to follow-up).

[2] = Plasma pharmacokinetics, T2DM subjects; conditions: human, plasma analyte; for AUC(0-inf): read-out: AUC(0–∞) Geometric mean (CV%); for Cmax: read-out: Cmax Geometric mean (CV%); for Tmax: read-out: Tmax Median; for half-life: read-out: T½ Geometric mean (CV%) (converted)
Description: Six subjects with T2DM received two doses of remogliflozin etabonate and a placebo dose, in a randomized, dose escalating, crossover design, along with an oral glucose load on three study sessions separated by 7–14 days. Full PK and safety profiles were measured on Day 1 of each dosing period. The doses selected for this portion of the study, 50 mg and 500 mg, were based on data obtained in Part A. In each dosing period, subjects were assigned to active vs placebo in a 2:1 ratio. On each dosing day, a series of 2.0 mL blood samples were collected at pre-dose and 10, 20, 30 and 45 min, and 1, 1.25, 1.5, 2, 2.5, 3, 4, 6, 8, 12, 16, and 24 h post-dose for the determination of remogliflozin etabonate, remogliflozin and GSK279782 in plasma by using high-performance liquid chromatography with tandem mass spectrometry (MS/MS) as described. Non-compartmental PK analysis of plasma concentration–time data was performed using WinNonlin Version 4.1 (Pharsight Corporation, Mountainview, CA, USA). The Cmax and Tmax were obtained directly from the data. Areas under the plasma concentration–time curves from time zero to the last quantifiable time point (AUC[0–last]) and extrapolated to infinity (AUC[0–∞]) were calculated using the log-linear trapezoidal method. The terminal plasma elimination rate-constant (λz) was estimated from log-linear regression analysis of the terminal phase of the plasma concentration–time curve, and the T½ was calculated as T½ = ln2/λz. Ratios of AUC(0–∞) remogliflozin to AUC(0–last) remogliflozin etabonate were calculated including molecular weight corrections.

[3] = 24-h urine electrolyte excretion, healthy subjects; conditions: for Urinary chloride excretion / Urinary potassium excretion / Urinary sodium excretion: 24-h, healthy subjects, mean (SD)
Description: Urine samples were collected at pre-dose, and over a series of intervals (0–2, 2–4, 4–6, 6–8, 8–12 and 12–24 h post-dose) for the analysis of creatinine, glucose and electrolytes (Na, K and Cl). All fluid intake was recorded, as well as urine volume, over the 24 hours before and after dosing in each treatment period. Urine was tested for protein on the first morning void of day -1 and 24 h after dosing.

[4] = Plasma glucose, insulin and intact GLP-1 after 50 g OGTT, T2DM subjects; conditions: for median baseline adjusted AUC(0–4) for plasma GLP-1 following an OGTT: placebo 6.36
Description: as §1
Blood samples for glucose were taken at 0 (pre-dose), and 1, 2, 4, 8 and 12 h after dosing in each treatment period (Part A). For Part B, blood samples for glucose, insulin and GLP-1 were taken at check-in on day -2, and at 0 h (pre-dose), and 0.5, 1, 1.5, 2, 4 h (prior to lunch), 4.5, 5, 6, 8, 10, 12 and 24 h after dosing on day 1 of each treatment period.
For glucose, plasma was analyzed using a YSI 2300 Glucose Analyzer (Yellow Springs International Life Sciences, Yellow Springs, OH, USA). For insulin, plasma was rapidly prepared and frozen at -70°C until analyzed by LabCorp (San Diego, CA, USA) using a chemiluminescent immunometric assay method (Siemen’s Immulite 2000 analyzer with Immulite Insulin Kit L2KIN2).
For assay of intact GLP-1, blood was collected into a chilled EDTA tube and protease inhibitors (DPP4 inhibitor obtained from EMD Millipore, St. Charles, MO) were immediately added. Samples were then spun down and plasma split into two separate tubes and frozen at -70°C until analyzed by Pathway Diagnostics (Malibu, CA, USA) by ELISA (kit # EGLP-35 K, EMD Millipore). The lowest level of intact GLP-1 this assay can detect is 2 pM (with a minimum plasma sample size of 0.4 mL).

[5] = remogliflozin etabonate 50 mg oral dose
[6] = remogliflozin etabonate 500 mg oral dose (prodrug n = 2)
[7] = remogliflozin etabonate 500 mg oral dose

AUC(0-inf) [2, 5]: 8.91 ng·h/mL | Cmax [2, 5]: 9.56 ng/mL | Tmax [2, 5]: 34.8 min | half-life [2, 5]: 36.6 min | AUC(0-inf) [2, 6]: 91.9 ng·h/mL | half-life [2, 6]: 49.2 min | Cmax [2, 7]: 83.9 ng/mL | Tmax [2, 7]: 45 min | Urinary chloride excretion ([3]; 20 mg single dose): 136 (56.6) mmol | Urinary potassium excretion ([3]; 20 mg single dose): 66.6 (27.7) mmol | Urinary sodium excretion ([3]; 20 mg single dose): 148 (64.0) mmol | Urinary chloride excretion ([3]; 50 mg single dose, n = 7): 189 (51.4)^b mmol | Urinary potassium excretion ([3]; 50 mg single dose, n = 7): 75.2 (21.3)^b mmol | Urinary sodium excretion ([3]; 50 mg single dose, n = 7): 212 (67.6)^b mmol | Urinary chloride excretion ([3]; 150 mg single dose, n = 7): 179 (49.6)^b mmol | Urinary potassium excretion ([3]; 150 mg single dose, n = 7): 59.7 (20.3)^b mmol | Urinary sodium excretion ([3]; 150 mg single dose, n = 7): 176 (38.7)^b mmol | Urinary chloride excretion ([3]; 500 mg single dose): 126 (55) mmol | Urinary potassium excretion ([3]; 500 mg single dose): 55.8 (17.2) mmol | Urinary sodium excretion ([3]; 500 mg single dose): 143 (55.0) mmol | Urinary chloride excretion ([3]; 1000 mg single dose): 201 (61.5) mmol | Urinary potassium excretion ([3]; 1000 mg single dose): 89.1 (24.7) mmol | Urinary sodium excretion ([3]; 1000 mg single dose): 207 (62.9) mmol
Compound: CCOC(=O)OC[C@H]1O[C@@H](Oc2nn(C(C)C)c(C)c2Cc2ccc(OC(C)C)cc2)[C@H](O)[C@@H](O)[C@@H]1O [Remogliflozin etabonate, remogliflozin etabonate]
Muscle cramp (adverse events reported by >1 subject in total) ([1]; 50 mg single oral dose): 1 (17) n (%) | Nausea (drug-related adverse events) ([1]; 50 mg single oral dose): 0 n (%) | Pain in extremity (drug-related adverse events) ([1]; 50 mg single oral dose): 0 n (%) | β2-microglobulin increased (adverse events reported by >1 subject in total) ([1]; 50 mg single oral dose): 0 n (%) | β2-microglobulin increased (drug-related adverse events) ([1]; 50 mg single oral dose): 0 n (%) | At least one adverse event ([1]; 50 mg single oral dose): 1 (17) n (%) | Muscle cramp (adverse events reported by >1 subject in total) ([1]; 500 mg single oral dose): 0 n (%) | Nausea (drug-related adverse events) ([1]; 500 mg single oral dose): 1 (17) n (%) | Pain in extremity (drug-related adverse events) ([1]; 500 mg single oral dose): 1 (17) n (%) | β2-microglobulin increased (adverse events reported by >1 subject in total) ([1]; 500 mg single oral dose): 2 (33) n (%) | β2-microglobulin increased (drug-related adverse events) ([1]; 500 mg single oral dose): 1 (17) n (%) | At least one adverse event ([1]; 500 mg single oral dose): 2 (33) n (%) | Effect on clinical laboratory results, urine electrolytes, vital signs or ECGs ([3]; all subjects): no obvious patterns suggesting an effect | Increases in plasma glucose following an OGTT ([4]; 50 mg RE vs placebo, altered little from 50 mg to 500 mg): clearly attenuated | median baseline adjusted AUC(0–4) for plasma GLP-1 following an OGTT ([4]; 50 mg): -8.85 pM·h | median baseline adjusted AUC(0–4) for plasma GLP-1 following an OGTT ([4]; 500 mg): -1.95 pM·h | Plasma insulin following the glucose load ([4]; 50 and 500 mg): no clear trends
